Laboratory results: US20230357310A1, “Saponin derivatives with improved therapeutic window” (priority 2019, published 2023)

Test system: EGFR expressing cells (HeLa)
Experiment: cells
Details: summary statement in the description

Structure (SMILES) | endosomal escape enhancing activity (enhancement of cytotoxicity of ADC / effector molecules)
CC(=O)OC1C(C)OC(OC2C(C)OC(OC(=O)[C@]34CCC(C)(C)CC3C3=CCC5[C@@]6(C)CC[C@H](OC7OC(C(=O)NC(C)(CO)CO)C(O)C(OC8OCC(O)C(O)C8O)C7OC7OC(CO)C(O)C(O)C7O)[C@@](C)(C=O)C6CC[C@@]5(C)[C@]3(C)C[C@H]4O)C(OC3OC(C)C(OC4OCC(O)C(OC5OC(CO)C(O)C(O)C5O)C4O)C(O)C3O)C2O)C(O)C1OC1OCC(O)C(O)C1O (stereo partly drawn) [Molecule 3A] | display activity
CC(=O)OC1C(C)OC(OC2C(C)OC(OC(=O)C34CCC(C)(C)CC3C3=CCC5C6(C)CCC(OC7OC(C(=O)NC(C)(CO)CO)C(O)C(OC8OCC(O)C(O)C8O)C7OC7OC(CO)C(O)C(O)C7O)C(C)(C=NNC(=O)CCCCCN7C(=O)C=CC7=O)C6CCC5(C)C3(C)CC4O)C(OC3OC(C)C(OC4OCC(O)C(OC5OC(CO)C(O)C(O)C5O)C4O)C(O)C3O)C2O)C(O)C1OC1OCC(O)C(O)C1O (stereo not drawn) [Molecule 14] | have the capacity to enhance the cytotoxic effect
CC(=O)OC1C(C)OC(OC2C(C)OC(OC(=O)[C@]34CCC(C)(C)CC3C3=CCC5[C@@]6(C)CC[C@H](OC7OC(C(=O)NCCN8C(=O)C=CC8=O)C(O)C(OC8OCC(O)C(O)C8O)C7OC7OC(CO)C(O)C(O)C7O)[C@@](C)(CO)C6CC[C@@]5(C)[C@]3(C)C[C@H]4O)C(OC3OC(C)C(OC4OCC(O)C(OC5OC(CO)C(O)C(O)C5O)C4O)C(O)C3O)C2O)C(O)C1OC1OCC(O)C(O)C1O (stereo partly drawn) [Molecule 20] | have the capacity to enhance the cytotoxic effect
CC(=O)OC1C(C)OC(OC2C(C)OC(OC(=O)[C@]34CCC(C)(C)CC3C3=CCC5[C@@]6(C)CC[C@H](OC7OC(C(=O)NC(C)(CO)CO)C(O)C(OC8OCC(O)C(O)C8O)C7OC7OC(CO)C(O)C(O)C7O)[C@@](C)(CO)C6CC[C@@]5(C)[C@]3(C)C[C@H]4O)C(OC3OC(C)C(OC4OCC(O)C(OC5OC(CO)C(O)C(O)C5O)C4O)C(O)C3O)C2O)C(O)C1OC1OCC(O)C(O)C1O (stereo partly drawn) [Molecule 9] | have the capacity to enhance the cytotoxic effect
CC1OC(OC2C(C)OC(OC(=O)[C@]34CCC(C)(C)CC3C3=CCC5[C@@]6(C)CC[C@H](OC7OC(C(=O)NC(C)(CO)CO)C(O)C(OC8OCC(O)C(O)C8O)C7OC7OC(CO)C(O)C(O)C7O)[C@@](C)(C=O)C6CC[C@@]5(C)[C@]3(C)C[C@H]4O)C(OC3OC(C)C(OC4OCC(O)C(OC5OC(CO)C(O)C(O)C5O)C4O)C(O)C3O)C2O)C(O)C(OC2OCC(O)C(O)C2O)C1O (stereo partly drawn) [Molecule 11] | display activity
CC(=O)OC1C(C)OC(OC2C(C)OC(OC(=O)[C@]34CCC(C)(C)CC3C3=CCC5[C@@]6(C)CC[C@H](OC7OC(C(=O)NCCN8C(=O)C=CC8=O)C(O)C(OC8OCC(O)C(O)C8O)C7OC7OC(CO)C(O)C(O)C7O)[C@@](C)(C=O)C6CC[C@@]5(C)[C@]3(C)C[C@H]4O)C(OC3OC(C)C(OC4OCC(O)C(OC5OC(CO)C(O)C(O)C5O)C4O)C(O)C3O)C2O)C(O)C1OC1OCC(O)C(O)C1O (stereo partly drawn) [Molecule 18] | display activity

Test system: not listed separately
Experiment: Critical micellar concentration (ANS fluorescence)
Assay type: physicochemical
Details: SO saponins, determined in PBS, Table A7
Experimental: The critical micellar concentration (CMC) of saponins derived from Saponaria officinalis (SO) (Table A7) and derived from Quillaja saponaria (QS) (Table A8, and Table A9) was determined by the method of DeVendittis et al. (A fluorimetric method for the estimation of the critical micelle concentration of surfactants, Analytical Biochemistry, Volume 115, Issue 2, August 1981, Pages 278-286) as follows:
The emission spectrum of 8-Anilinonaphthalene-1-sulfonic acid (ANS) in either purified water (MQ) or PBS (Dulbecco's PBS+/+) was determined at dry weight concentrations of saponins ranging from 1 to 1400 μM to cover the range below and above the CMC. Above the CMC, the fluorescence yield of ANS increases and the wavelength of maximum emission decreases due to portioning of the fluorescent dye into micelles. Fluorescence yields were recorded on a Fluoroskan Ascent FL (Thermo Scientific) at an excitation wavelength of 355 nm, and an emission wavelength of 460 nm. 6 μg at a concentration of 75.86 μM of ANS were used per sample and measurement.

Structure (SMILES) | CMC
CC1OC(OC2C(C)OC(OC(=O)[C@]34CCC(C)(C)CC3C3=CCC5[C@@]6(C)CC[C@H](OC7OC(C(=O)NCCN8C(=O)C=CC8=O)C(O)C(OC8OCC(O)C(O)C8O)C7OC7OC(CO)C(O)C(O)C7O)[C@@](C)(CO)C6CC[C@@]5(C)[C@]3(C)C[C@H]4O)C(OC3OC(C)C(OC4OCC(O)C(OC5OC(CO)C(O)C(O)C5O)C4O)C(O)C3O)C2O)C(O)C(OC2OCC(O)C(O)C2O)C1O (stereo partly drawn) [SO1861-(Glu-AEM)-(Ald-OH)-(Ac—OH)] | >150 µM
CC1OC(OC2C(C)OC(OC(=O)C34CCC(C)(C)CC3C3=CCC5C6(C)CCC(OC7OC(C(=O)O)C(O)C(OC8OCC(O)C(O)C8O)C7OC7OC(CO)C(O)C(O)C7O)C(C)(C=NNC(=O)CCCCCN7C(=O)C=CC7=O)C6CCC5(C)C3(C)CC4O)C(OC3OC(C)C(OC4OCC(O)C(OC5OC(CO)C(O)C(O)C5O)C4O)C(O)C3O)C2O)C(O)C(OC2OCC(O)C(O)C2O)C1O (stereo not drawn) [SO1861-(Ald-EMCH)-(Ac—OH)] | >300 µM
CC1OC(OC2C(C)OC(OC(=O)[C@]34CCC(C)(C)CC3C3=CCC5[C@@]6(C)CC[C@H](OC7OC(C(=O)O)C(O)C(OC8OCC(O)C(O)C8O)C7OC7OC(CO)C(O)C(O)C7O)[C@@](C)(CO)C6CC[C@@]5(C)[C@]3(C)C[C@H]4O)C(OC3OC(C)C(OC4OCC(O)C(OC5OC(CO)C(O)C(O)C5O)C4O)C(O)C3O)C2O)C(O)C(OC2OCC(O)C(O)C2O)C1O (stereo partly drawn) [SO1861-(Ald-OH)-(Ac—OH)] | >280 µM
CC(=O)OC1C(C)OC(OC2C(C)OC(OC(=O)C34CCC(C)(C)CC3C3=CCC5C6(C)CCC(OC7OC(C(=O)NC(C)(CO)CO)C(O)C(OC8OCC(O)C(O)C8O)C7OC7OC(CO)C(O)C(O)C7O)C(C)(C=NNC(=O)CCCCCN7C(=O)C=CC7=O)C6CCC5(C)C3(C)CC4O)C(OC3OC(C)C(OC4OCC(O)C(OC5OC(CO)C(O)C(O)C5O)C4O)C(O)C3O)C2O)C(O)C1OC1OCC(O)C(O)C1O (stereo not drawn) [SO1861-(Ald-EMCH)-(Glu-AMPD)] | >30 µM

Same assay, conditions: comparison in words

Structure (SMILES) | CMC compared with native (underivatised) saponin
CC(=O)OC1C(C)OC(OC2C(C)OC(OC(=O)[C@]34CCC(C)(C)CC3C3=CCC5[C@@]6(C)CC[C@H](OC7OC(C(=O)NC(C)(CO)CO)C(O)C(OC8OCC(O)C(O)C8O)C7OC7OC(CO)C(O)C(O)C7O)[C@@](C)(C=O)C6CC[C@@]5(C)[C@]3(C)C[C@H]4O)C(OC3OC(C)C(OC4OCC(O)C(OC5OC(CO)C(O)C(O)C5O)C4O)C(O)C3O)C2O)C(O)C1OC1OC(C)C(O)C(O)C1O (stereo partly drawn) [SO1861-Glu-AMPD] | lower CMC values
CC1OC(OC2C(C)OC(OC(=O)[C@]34CCC(C)(C)CC3C3=CCC5[C@@]6(C)CC[C@H](OC7OC(C(=O)O)C(O)C(OC8OCC(O)C(O)C8O)C7OC7OC(CO)C(O)C(O)C7O)[C@@](C)(C=O)C6CC[C@@]5(C)[C@]3(C)C[C@H]4O)C(OC3OC(C)C(OC4OCC(O)C(OC5OC(CO)C(O)C(O)C5O)C4O)C(O)C3O)C2O)C(O)C(OC2OCC(O)C(O)C2O)C1O (stereo partly drawn) [SO1861-Ac—OH] | higher CMC values
CC1OC(OC2C(C)OC(OC(=O)[C@]34CCC(C)(C)CC3C3=CCC5[C@@]6(C)CC[C@H](OC7OC(C(=O)NCCN8C(=O)C=CC8=O)C(O)C(OC8OCC(O)C(O)C8O)C7OC7OC(CO)C(O)C(O)C7O)[C@@](C)(C=O)C6CC[C@@]5(C)[C@]3(C)C[C@H]4O)C(OC3OC(C)C(OC4OCC(O)C(OC5OC(CO)C(O)C(O)C5O)C4O)C(O)C3O)C2O)C(O)C(OC2OCC(O)C(O)C2O)C1O (stereo partly drawn) [SO1861-(Glu-AEM)-(Ac—OH)] | lower CMC values
CC(=O)OC1C(C)OC(OC2C(C)OC(OC(=O)[C@]34CCC(C)(C)CC3C3=CCC5[C@@]6(C)CC[C@H](OC7OC(C(=O)O)C(O)C(OC8OCC(O)C(O)C8O)C7OC7OC(CO)C(O)C(O)C7O)[C@@](C)(CO)C6CC[C@@]5(C)[C@]3(C)C[C@H]4O)C(OC3OC(C)C(OC4OCC(O)C(OC5OC(CO)C(O)C(O)C5O)C4O)C(O)C3O)C2O)C(O)C1OC1OCC(O)C(O)C1O (stereo partly drawn) [SO1861-Ald-OH] | higher CMC values
CC(=O)OC1C(C)OC(OC2C(C)OC(OC(=O)[C@]34CCC(C)(C)CC3C3=CCC5[C@@]6(C)CC[C@H](OC7OC(C(=O)NCCN8C(=O)C=CC8=O)C(O)C(OC8OCC(O)C(O)C8O)C7OC7OC(CO)C(O)C(O)C7O)[C@@](C)(CO)C6CC[C@@]5(C)[C@]3(C)C[C@H]4O)C(OC3OC(C)C(OC4OCC(O)C(OC5OC(CO)C(O)C(O)C5O)C4O)C(O)C3O)C2O)C(O)C1OC1OCC(O)C(O)C1O (stereo partly drawn) [SO1861-(Glu-AEM)-(Ald-OH)] | lower CMC values
CC(=O)OC1C(C)OC(OC2C(C)OC(OC(=O)C34CCC(C)(C)CC3C3=CCC5C6(C)CCC(OC7OC(C(=O)NC(C)(CO)CO)C(O)C(OC8OCC(O)C(O)C8O)C7OC7OC(CO)C(O)C(O)C7O)C(C)(C=NNC(=O)CCCCCN7C(=O)C=CC7=O)C6CCC5(C)C3(C)CC4O)C(OC3OC(C)C(OC4OCC(O)C(OC5OC(CO)C(O)C(O)C5O)C4O)C(O)C3O)C2O)C(O)C1OC1OCC(O)C(O)C1O (stereo not drawn) [SO1861-(Ald-EMCH)-(Glu-AMPD)] | lower CMC values
CC1OC(OC2C(C)OC(OC(=O)[C@]34CCC(C)(C)CC3C3=CCC5[C@@]6(C)CC[C@H](OC7OC(C(=O)NC(C)(CO)CO)C(O)C(OC8OCC(O)C(O)C8O)C7OC7OC(CO)C(O)C(O)C7O)[C@@](C)(C=O)C6CC[C@@]5(C)[C@]3(C)C[C@H]4O)C(OC3OC(C)C(OC4OCC(O)C(OC5OC(CO)C(O)C(O)C5O)C4O)C(O)C3O)C2O)C(O)C(OC2OCC(O)C(O)C2O)C1O (stereo partly drawn) [SO1861-(Ac—OH)-(Glu-AMPD)] | lower CMC values
CC(=O)OC1C(C)OC(OC2C(C)OC(OC(=O)[C@]34CCC(C)(C)CC3C3=CCC5[C@@]6(C)CC[C@H](OC7OC(C(=O)NC(C)(CO)CO)C(O)C(OC8OCC(O)C(O)C8O)C7OC7OC(CO)C(O)C(O)C7O)[C@@](C)(CO)C6CC[C@@]5(C)[C@]3(C)C[C@H]4O)C(OC3OC(C)C(OC4OCC(O)C(OC5OC(CO)C(O)C(O)C5O)C4O)C(O)C3O)C2O)C(O)C1OC1OCC(O)C(O)C1O (stereo partly drawn) [SO1861-(Ald-OH)-(Glu-AMPD)] | lower CMC values
CC(=O)OC1C(C)OC(OC2C(C)OC(OC(=O)C34CCC(C)(C)CC3C3=CCC5C6(C)CCC(OC7OC(C(=O)O)C(O)C(OC8OCC(O)C(O)C8O)C7OC7OC(CO)C(O)C(O)C7O)C(C)(C=NNC(=O)CCCCCN7C(=O)C=CC7=O)C6CCC5(C)C3(C)CC4O)C(OC3OC(C)C(OC4OCC(O)C(OC5OC(CO)C(O)C(O)C5O)C4O)C(O)C3O)C2O)C(O)C1OC1OCC(O)C(O)C1O (stereo not drawn) [Molecule 2] | increased CMC

Same assay, conditions: comparison in words; listed as SO1861-(Ald-EMCH)—(Ac—OH)

Structure (SMILES) | CMC compared with native (underivatised) saponin
CC1OC(OC2C(C)OC(OC(=O)C34CCC(C)(C)CC3C3=CCC5C6(C)CCC(OC7OC(C(=O)O)C(O)C(OC8OCC(O)C(O)C8O)C7OC7OC(CO)C(O)C(O)C7O)C(C)(C=NNC(=O)CCCCCN7C(=O)C=CC7=O)C6CCC5(C)C3(C)CC4O)C(OC3OC(C)C(OC4OCC(O)C(OC5OC(CO)C(O)C(O)C5O)C4O)C(O)C3O)C2O)C(O)C(OC2OCC(O)C(O)C2O)C1O (stereo not drawn) [SO1861-(Ald-EMCH)-(Ac—OH)] | increased CMC values

Same assay, conditions: comparison in words; listed as SO1861-(Ald-OH)—(Ac—OH)

Structure (SMILES) | CMC compared with native (underivatised) saponin
CC1OC(OC2C(C)OC(OC(=O)[C@]34CCC(C)(C)CC3C3=CCC5[C@@]6(C)CC[C@H](OC7OC(C(=O)O)C(O)C(OC8OCC(O)C(O)C8O)C7OC7OC(CO)C(O)C(O)C7O)[C@@](C)(CO)C6CC[C@@]5(C)[C@]3(C)C[C@H]4O)C(OC3OC(C)C(OC4OCC(O)C(OC5OC(CO)C(O)C(O)C5O)C4O)C(O)C3O)C2O)C(O)C(OC2OCC(O)C(O)C2O)C1O (stereo partly drawn) [SO1861-(Ald-OH)-(Ac—OH)] | increased CMC values
